Data: publication PMC4779956 (Journal of medicinal chemistry, 2015)

Legend:
ERα [1] = target: T1, ERα (Homo sapiens, UniProt P03372); test: ERE-luciferase reporter assay; format: cell-based; settings: for Efficacy (% E2): MCF-7:ws8 cells, normalized to Ctrl (0%) and E2 1 nM (100%)
T1 sequence (P03372 1-595): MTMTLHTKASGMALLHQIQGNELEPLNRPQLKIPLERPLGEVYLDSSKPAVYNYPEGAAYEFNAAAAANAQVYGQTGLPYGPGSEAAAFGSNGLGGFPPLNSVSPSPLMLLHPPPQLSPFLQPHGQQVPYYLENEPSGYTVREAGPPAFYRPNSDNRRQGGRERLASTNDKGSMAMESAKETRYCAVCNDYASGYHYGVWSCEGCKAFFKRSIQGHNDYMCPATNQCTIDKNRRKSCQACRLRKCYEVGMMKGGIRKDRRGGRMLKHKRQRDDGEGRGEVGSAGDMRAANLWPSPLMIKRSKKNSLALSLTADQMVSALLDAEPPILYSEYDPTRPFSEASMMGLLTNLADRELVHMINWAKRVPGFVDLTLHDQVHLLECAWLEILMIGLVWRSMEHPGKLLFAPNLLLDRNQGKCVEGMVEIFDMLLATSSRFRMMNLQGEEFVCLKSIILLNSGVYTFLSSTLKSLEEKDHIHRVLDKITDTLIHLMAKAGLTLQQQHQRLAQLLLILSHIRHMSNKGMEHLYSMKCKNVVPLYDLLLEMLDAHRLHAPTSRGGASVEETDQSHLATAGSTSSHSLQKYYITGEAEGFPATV

MCF-7:5C cells = test: MCF-7:5C cell viability assay; format: cell-based, human
ERα [2] = target: T1, ERα; test: Antagonism of E2-induced ERE-luciferase activation; format: cell-based; settings: MCF-7:ws8, in presence of 0.1 nM E2, ShERPA 100-500 nM, 18 h
ERα-LBD/SRC3 complex [3] = target: T2, ERα-LBD/SRC3 complex (Homo sapiens, UniProt P03372); test: TR-FRET SRC3 titration; format: biochemical; settings: 20 μM ligand
T2 sequence (P03372 311-547 limits assumed): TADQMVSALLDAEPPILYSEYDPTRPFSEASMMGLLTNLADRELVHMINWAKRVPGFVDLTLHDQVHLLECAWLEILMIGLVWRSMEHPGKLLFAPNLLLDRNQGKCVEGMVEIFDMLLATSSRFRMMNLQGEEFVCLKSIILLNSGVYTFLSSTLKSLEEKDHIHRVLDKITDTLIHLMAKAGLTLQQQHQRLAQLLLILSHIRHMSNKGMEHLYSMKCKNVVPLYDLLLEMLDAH
T2 sequence (Q9Y6Q9 627-829 partner limits assumed): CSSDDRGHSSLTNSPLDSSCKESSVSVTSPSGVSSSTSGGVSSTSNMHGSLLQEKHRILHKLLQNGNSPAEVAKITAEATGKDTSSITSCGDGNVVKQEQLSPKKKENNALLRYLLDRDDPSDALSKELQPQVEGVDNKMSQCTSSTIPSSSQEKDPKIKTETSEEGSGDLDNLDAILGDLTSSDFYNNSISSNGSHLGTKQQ

ERα-LBD/SRC3 complex [4] = target: T2, ERα-LBD/SRC3 complex; test: TR-FRET ligand titration in presence of 10 nM E2; format: biochemical; settings: in presence of 10 nM E2, 100 nM SRC3
T47D:A18/PKCα tumors [5] = test: T47D:A18/PKCα tamoxifen-resistant xenograft; format: in vivo, mice; settings: 100 mg/kg oral gavage daily, within two weeks
[6] = Uterine weight in xenograft study; format: in vivo, mice; settings: T47D:A18/PKCα xenograft study, 100 mg/kg oral daily
T47D:A18/PKCα tumors [7] = settings: T47D:A18/PKCα model; cited from earlier work
[8] = T47D:A18/PKCα xenograft study; cited from earlier work
T47D:A18-TAM1 = T47D:A18-TAM1 model; cited from earlier work

Cc1ccc(C(=O)c2c(-c3ccc(O)cc3)sc3cc(O)ccc23)cc1 [Compound 14a]
Efficacy (% E2) (ERα [1]): 100 % E2

O=C(c1ccc(C(F)(F)F)cc1)c1c(-c2ccc(F)cc2)sc2cc(O)ccc12 [Compound 14b, (2-(4-fluorophenyl)-6-hydroxybenzo[b]thiophen-3-yl)(4-(trifluoromethyl)phenyl)methanone]
Efficacy (% E2) (ERα [1]): 100 % E2

O=C(c1ccc(C(F)(F)F)cc1)c1c(-c2ccc(Cl)cc2)sc2cc(O)ccc12 [Compound 14c, (2-(4-chlorophenyl)-6-hydroxybenzo[b]thiophen-3-yl)(4-(trifluoromethyl)phenyl)methanone]
Efficacy (% E2) (ERα [1]): 100 % E2

Oc1ccc(Oc2c(-c3ccc(F)cc3)sc3cc(O)ccc23)cc1 [Compound 19, 2-(4-fluorophenyl)-3-(4-hydroxyphenoxy)benzo[b]thiophen-6-ol]
Efficacy (% E2) (ERα [1]): 100 % E2

CS(=O)(=O)c1ccc(C(=O)c2sc3cc(O)ccc3c2-c2ccc(F)cc2)cc1 [Compound 21a, (3-(4-fluorophenyl)-6-hydroxybenzo[b]thiophen-2-yl)(4-(methylsulfonyl)phenyl)methanone]
Efficacy (% E2) (ERα [1]): 100 % E2

O=C(c1ccc(O)cc1)c1sc2cc(O)ccc2c1-c1ccc(F)cc1 [Compound 21b, (3-(4-fluorophenyl)-6-hydroxybenzo[b]thiophen-2-yl)(4-hydroxyphenyl)methanone]
Efficacy (% E2) (ERα [1]): 100 % E2

O=C(c1sc2cc(O)ccc2c1-c1ccc(F)cc1)C1CCCCC1 [Compound 21g, Cyclohexyl(3-(4-fluorophenyl)-6-hydroxybenzo[b]thiophen-2-yl)methanone]
Efficacy (% E2) (ERα [1]): 100 % E2 | Inhibition of cell growth relative to E2 % (MCF-7:5C cells; 10 nM, 9 day, control 0 %, E2 100 %, 0.01 µM): 100%

C#Cc1ccc(C(=O)c2sc3cc(O)ccc3c2-c2ccc(F)cc2)cc1 [Compound 23, (4-ethynylphenyl)(3-(4-fluorophenyl)-6-hydroxybenzo[b]thiophen-2-yl)methanone]
EC50 (ERα [1]): 5 nM | Efficacy (% E2) (ERα [1]): 65 % E2 | Antagonism of E2 induced ERE activation (ERα [2]): dose dependent reduction in E2 luciferase activity | Maximal FRET signal relative to E2-liganded ERα-LBD/SRC3 complex (ERα-LBD/SRC3 complex [3]): less than 50% | Effect on FRET signal on ligand titration (ERα-LBD/SRC3 complex [4]): reduced FRET signal | Tumor size versus control tumors (T47D:A18/PKCα tumors [5]): half the size of control tumors

O=C(c1ccc(C(F)(F)F)cc1)c1sc2cc(O)ccc2c1-c1ccc(F)cc1 [Compound 26a, (3-(4-fluorophenyl)-6-hydroxybenzo[b]thiophen-2-yl)(4-(trifluoromethyl)phenyl)methanone]
Efficacy (% E2) (ERα [1]): 85 % E2 | Tumor size versus control tumors (T47D:A18/PKCα tumors [5]): half the size of control tumors | Uterine weight versus vehicle control [6]: no significant increase in uterine weight compared to vehicle control mice

N#Cc1ccc(C(=O)c2sc3cc(O)ccc3c2-c2ccc(F)cc2)cc1 [Compound 26b, 4-(3-(4-fluorophenyl)-6-hydroxybenzo[b]thiophene-2-carbonyl)benzonitrile]
Efficacy (% E2) (ERα [1]): 100 % E2

Oc1ccc(Oc2sc3cc(O)ccc3c2-c2ccc(F)cc2)cc1 [Compound 30a, 3-(4-fluorophenyl)-2-(4-hydroxyphenoxy)benzo[b]thiophen-6-ol]
Efficacy (% E2) (ERα [1]): 60 % E2 | Antagonism of E2 induced ERE activation (ERα [2]): dose dependent reduction in E2 luciferase activity | Maximal FRET signal relative to E2-liganded ERα-LBD/SRC3 complex (ERα-LBD/SRC3 complex [3]): less than 50% | Effect on FRET signal on ligand titration (ERα-LBD/SRC3 complex [4]): reduced FRET signal | Xenograft tumor regression (T47D:A18/PKCα tumors [7]): dramatic regression | Uterine weight [8]: not accompanied by a significant increase in uterine weight | Xenograft tumor regression (T47D:A18-TAM1): dramatic regression

Oc1ccc2c(-c3ccc(F)cc3)c(Oc3ccc(Cl)cc3)sc2c1 [Compound 30b, 2-(4-chlorophenoxy)-3-(4-fluorophenyl)benzo[b]thiophen-6-ol]
Efficacy (% E2) (ERα [1]): 70 % E2 | Antagonism of E2 induced ERE activation (ERα [2]): dose dependent reduction in E2 luciferase activity

Oc1ccc2c(-c3ccc(F)cc3)c(Oc3ccc(F)cc3)sc2c1 [Compound 30c, 2-(4-fluorophenoxy)-3-(4-fluorophenyl)benzo[b]thiophen-6-ol]
Efficacy (% E2) (ERα [1]): 100 % E2

Oc1ccc2c(-c3ccc(F)cc3)c(Oc3ccc(F)c(F)c3)sc2c1 [Compound 30d, 2-(3,4-difluorophenoxy)-3-(4-fluorophenyl)benzo[b]thiophen-6-ol]
Efficacy (% E2) (ERα [1]): 100 % E2

C[C@]12CC[C@@H]3c4ccc(O)cc4CC[C@H]3[C@@H]1CC[C@@H]2O [Compound E2, estradiol, reference compound]
Reduction of cell viability compared to vehicle control (MCF-7:5C cells; 9 days): approximately 60%
